In patent publication US9272013B2, “Methods for treating combined radiation and thermal injury” (University of Southern California, priority 2010, dated 2016):
Entries after “also recorded” stand apart in the source; their conditions may differ. Where no end group is shown, it is not given here. [ ]: non-standard residue; d: D form. Nle = CCCC[C@H](N)C(=O)O

Tests used:
Type in all cases: in vivo
[1] = tested on: mouse model of CRBI (10 sec scald at 70 C following 600 cGy TBI); assay: Apoptosis in dermal tissue by TUNEL assay in mouse thermal injury / CRBI model; conditions: daily 100 ul per wound at 1 mg/ml, day 7
Protocol: Mice received thermal injury only received a 7% total body surface area scald at 70 C for 10 seconds (under ketamine/xylazine anesthesia). Mice that received the combined injury received total body irradiation with a cesium irradiator at a dose of 6 Gy and 2 hours later received the same scald injury. For the data presented, the treatments were started immediately after the scald injury and the wound were bandaged with Tegaderm. Treatment was daily with 100 ul give per wound at a concentration of 1 mg/ml. The animals were euthanized on day 7. Apoptosis in the dermal tissue was measured by TUNEL assay. NorLeu3-A(1-7) provides additional systems to mitigate delayed wound healing with the involvement of radiation.

[2] = tested on: Guinea Pig Model of CRBI (200 cGy TBI and thermal injury 2 hours later); assay: Time point at which treatment can be initiated, survival in guinea pig CRBI model; conditions: 10 or 100 μg/daily
Protocol: A second study was conducted in this model to assess the length of time that treatment can be delayed and still reduce mortality. In this study, the guinea pigs underwent 200 cGy TBI and thermal injury 2 hours later. Treatment with placebo was started on day 0. Treatment with 10 or 100 μg/daily NorLeu^3-A(1-7) was initiated on day 0, 1, 2, 3 or 4. When treatment was started at days 0, 1, 2, or 3 survival was increased to approximately 40-60% versus 14% in the placebo-treated animals (FIG. 6-9).
(§1) For these studies, male Hartley guinea pigs weighing approximately 500 grams were purchased from Charles Rivers Laboratory (Charles Rivers, Mass.). The guinea pigs were housed in a 12:12 hour, light:dark, cycle in the USC Vivaria. The animals received 200 cGy TBI using a Cesuim 137 irradiator. One to two hours thereafter, the guinea pigs received a thermal injury. The thermal injuries were produced and post-operative care performed as described in Rodgers et al., 1997a,b, 2001. Briefly, after anesthesia, two burns were produced on each guinea pig with an 18 mm diameter solid brass rod, which was warmed in a 75° C. water bath. One end of the brass rod was placed on the back of the guinea pig for 50 seconds.
Each burn was treated with 2% HEC (vehicle for topical drug application) with and without NorLeu^3-A(1-7) in 0.05 mol/L phosphate buffer, pH 6.5, and was individually dressed. […]

[3] = tested on: Guinea Pig Model of CRBI (200 cGy TBI combined with 18 mm burn injuries); assay: NorLeu^3-A(1-7) dose-response study, survival in guinea pig model of CRBI; conditions: 1 μg/wound/day and above, applied to site of thermal injury daily through day 14; 200 cGy TBI + 18 mm burns
Protocol: (§2) In a subsequent study, 200 cGy TBI was combined with 18 mm burn injuries in a NorLeu^3-A(1-7) dose-response study. On the day of thermal injury and daily through day 14, various concentrations of NorLeu^3-A(1-7) (0-300 μg/day) were applied to the site of thermal injury (FIG. 3).
as §1
Each burn was treated with 2% HEC (vehicle for topical drug application) with and without NorLeu^3-A(1-7) in 0.05 mol/L phosphate buffer, pH 6.5, and was individually dressed. Treatment was started at various times after TBI and thermal injury as indicated below.

[4] = tested on: Guinea Pig Model of CRBI (200 cGy TBI combined with 18 mm burn injuries); assay: Proliferating cells at the edge of the burn (immunohistochemical staining, MIB-1) in guinea pig CRBI model; conditions: topical, day 14, 200 cGy TBI + 18 mm burns
Protocol: as §2
For these studies, male Hartley guinea pigs weighing approximately 500 grams were purchased from Charles Rivers Laboratory (Charles Rivers, Mass.). The guinea pigs were housed in a 12:12 hour, light:dark, cycle in the USC Vivaria. The animals received 200 cGy TBI using a Cesuim 137 irradiator. One to two hours thereafter, the guinea pigs received a thermal injury. […]
On day 14 after thermal injury, the guinea pigs was euthanized, the burned areas will be excised en bloc. […] Healing was measured by the number of proliferating cells at the injury site. […]
With an Olympus Vanox-S AH-2 dissecting microscope and a magnification power of 100×, each section of the biopsy specimen was separated into either areas on the burn edge or the actual burn areas. […] In each section four to six consecutive medium-power fields (mpf, 100×) were evaluated. […] All stained cells located within the hair follicles of the biopsy sections were counted. […] Each field was then determined to be either a section on the edge of the burn or a part of the burn area itself. […]

Q: Which “apoptosis in the dermis and subdermis of thermal injuries” value ([1]; mouse CRBI: 10 sec scald at 70 C following 600 cGy TBI) does the source give for “Asp-Arg-Nle-Tyr-Ile-His-Pro (DR[Nle]YIHP) [NorLeu^3-A(1-7)]” here?
A: reduces apoptosis

Q: What about the “apoptosis at the site of thermal injury alone” value ([1]; mouse thermal injury only (no TBI): 7% TBSA scald at 70 C for 10 seconds) of the same substance?
A: not at the site of thermal injury alone

Q: What about the “effectiveness (survival) with delayed treatment” value ([2]; initiation of treatment delayed until day 4) of the same substance?
A: effectiveness was reduced

Q: What about the survival ([2]; treatment started at days 0, 1, 2, or 3 after CRBI, versus 14% in placebo-treated animals) of the same substance?
A: 40-60%

Q: And the “mortality associated with combined injury” value [3]?
A: reduced mortality

Q: And the “number of proliferating cells in the hair follicle bulge at the edge of the wound” value ([4]; all doses (except 3 μg/wound/day))?
A: increases proliferating cells; also recorded: increased the number of proliferating cells

Q: And the “number of (proliferating) cells in the basal keratinocyte layer at the edge of the burn” value ([4]; doses of 10 μg/daily and above)?
A: increases proliferating cells; also recorded: increase in the number of cells
